Results reported in paper PMC10452110, “Indole-3-Acetamido-Polyamines as Antimicrobial Agents and Antibiotic Adjuvants” (Biomolecules, 2023).
In brackets after ≈: the same amount, converted by molar mass. Where two headings read alike, the source gives them in different places. Marks after values point to notes of the source that are not given here.

Assays:
[1] = test system: Acinetobacter baumannii (ATCC 19606); design: method as in Cadelis et al. [15]; details: A. baumannii ATCC 19606; ref Cadelis et al. [15]; cited from earlier work
MRSA (ATCC 43300) [2] = details: ref Cadelis et al. [15]; cited from earlier work
[3] = test system: Staphylococcus aureus (ATCC 25923); design: method as in Cadelis et al. [15]; details: S. aureus ATCC 25923; ref Cadelis et al. [15]; cited from earlier work
[4] = test system: Cryptococcus neoformans (ATCC 208821); design: method as in Cadelis et al. [15]; details: C. neoformans ATCC 208821; ref Cadelis et al. [15]; cited from earlier work
[5] = test system: HEK293 (human embryonic kidney) cells; design: method as in Cadelis et al. [15]; details: ref Cadelis et al. [15], read-out: Cytotoxicity: concentration of compound at 50% cytotoxicity (IC50); cited from earlier work
P. aeruginosa ATCC 27853 [6] = test system: P. aeruginosa ATCC 27853; design: method as in Cadelis et al. [15]; details: doxycycline at 4.5 µM, ref Cadelis et al. [15], cited from earlier work; for Dox/P. a fold change (ratio between intrinsic MIC of the test compound and combination MIC): P. aeruginosa ATCC 27853; for Dox/P. a: concentration required to restore doxycycline activity (combination MIC): P. aeruginosa
[7] = test system: Klebsiella pneumoniae (ATCC 700603); design: method as in Cadelis et al. [15]; details: K. pneumoniae ATCC 700603; ref Cadelis et al. [15]; cited from earlier work
[8] = test system: Candida albicans (ATCC 90028); design: method as in Cadelis et al. [15]; details: C. albicans ATCC 90028; ref Cadelis et al. [15]; cited from earlier work
human red blood cells [9] = test system: human red blood cells; design: method as in Cadelis et al. [15]; details: ref Cadelis et al. [15]; cited from earlier work
[10] = test system: Pseudomonas aeruginosa (ATCC 27853); design: method as in Cadelis et al. [15]; details: P. aeruginosa ATCC 27853; ref Cadelis et al. [15]; cited from earlier work
[11] = test system: Escherichia coli (ATCC 25922); design: method as in Cadelis et al. [15]; details: E. coli ATCC 25922; ref Cadelis et al. [15]; cited from earlier work
MRSA (ATCC 43300) [12] = assay: Intrinsic antimicrobial activity (MIC) against MRSA; assay type: cell-based; details: Staphylococcus aureus, MRSA ATCC 43300; mean (n = 2); read-out: MIC MRSA
Method in brief: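 Susceptibility testing: bacteria per earlier published methods; fungi per CO-ADD standard protocols (University of Queensland).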

E. coli ATCC 25922 = assay: Enhancement of erythromycin action against E. coli; assay type: cell-based, Escherichia coli; details: erythromycin at 10.9 µM
Procedure: (§1) Antibiotic enhancer concentrations were determined using previously reported protocols.

[13] = test system: Staphylococcus aureus (ATCC 25923); assay: Intrinsic antimicrobial activity (MIC) against S. aureus; assay type: cell-based; details: ATCC25923, S. aureus ATCC 25923, mean (n = 3), read-out: MIC S. a
Method in brief: (§2)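 Fungal strains were tested by CO-ADD at The University of Queensland using that facility's standard protocols, whereas bacterial MICs followed methods published earlier.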

[14] = test system: Klebsiella pneumoniae (ATCC 700603); assay: Intrinsic antimicrobial activity (MIC) against K. pneumoniae; assay type: cell-based; details: ATCC700603, K. pneumoniae ATCC 700603, mean (n = 2), read-out: MIC K. p
[15] = test system: Escherichia coli (ATCC 25922); assay: Intrinsic antimicrobial activity (MIC) against E. coli; assay type: cell-based; details: ATCC25922, E. coli ATCC 25922, mean (n = 3), read-out: MIC E. c
Method in brief: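 Antibacterial MICs by established in-house protocol; yeast MICs run externally at CO-ADD, University of Queensland, per their standard screening protocols.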

[16] = test system: Acinetobacter baumannii (ATCC 19606); assay: Intrinsic antimicrobial activity (MIC) against A. baumannii; assay type: cell-based; details: ATCC19606, A. baumannii ATCC 19606, mean (n = 2), read-out: MIC A. b
Cytotoxicity assay = assay type: cell-based; details: human; HEK293 cells; mean (n = 2); read-out: Cytotoxicity: concentration of compound at 50% cytotoxicity (IC50)
Procedure: Cytotoxicity assays were conducted using the protocols previously reported.

[17] = test system: Cryptococcus neoformans (ATCC 208821); assay: Intrinsic antifungal activity (MIC) against C. neoformans; assay type: cell-based; details: ATCC208821, C. neoformans ATCC 208821, mean (n = 2), read-out: MIC C. n
Method in brief: (§3)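 For the two bacterial species, susceptibility to compounds and antibiotics follows a prior protocol. Both fungal species are assessed by the Queensland-based Community for Open Antimicrobial Drug Discovery using its standard procedures.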

MRSA (CF-Marseille) = assay: Real time growth inhibition curves, microdilution MIC and MBC, MRSA (CF-Marseille); assay type: cell-based, Staphylococcus aureus
Source text: (§4) We next assessed the kinetics of antibacterial activity of 15c towards the Gram-positive bacteria S. aureus ATCC 25923 and MRSA (CF-Marseille) by measuring real time growth inhibition curves.

human red blood cells [18] = assay: Hemolytic assay; assay type: cell-based; details: mean (n = 2)
Procedure: Hemolysis assays were conducted using the protocols previously reported.

P. aeruginosa ATCC 27853 [19] = assay: Enhancement of doxycycline action against P. aeruginosa; assay type: cell-based, Pseudomonas aeruginosa; details: doxycycline at 4.5 µM
Procedure: as §1

[20] = test system: Candida albicans (ATCC 90028); assay: Intrinsic antifungal activity (MIC) against C. albicans; assay type: cell-based; details: ATCC90028, C. albicans ATCC 90028, mean (n = 2), read-out: MIC C. a
Method in brief: as §3

S. aureus ATCC 25923 = assay: Real time growth inhibition curves, microdilution MIC and MBC, S. aureus; assay type: cell-based, Staphylococcus aureus
Source text: as §4

[21] = test system: Pseudomonas aeruginosa (ATCC 27853); assay: Intrinsic antimicrobial activity (MIC) against P. aeruginosa; assay type: cell-based; details: ATCC27853, P. aeruginosa ATCC 27853, mean (n = 3), read-out: MIC P. a
Method in brief: as §2

[22] = lowest tested concentration 6.4 μM

| SMILES | MIC (MRSA (ATCC 43300) [12]) [µM] | Eryth/E. c: concentration required to restore erythromycin activity (combination MIC) (E. coli ATCC 25922) [µM] | MIC [13] [µM] | MIC [14] [µM] | MIC [15] [µM] | MIC [16] [µM] | IC50 (Cytotoxicity assay) [µM] | MIC [17] [µM] | Hemolysis: concentration of compound at 10% hemolytic activity (HC10) (human red blood cells [18]) [µM] | Dox/P. a: concentration required to restore doxycycline activity (combination MIC) (P. aeruginosa ATCC 27853 [19]) [µM] | MIC [20] [µM] | MIC [21] [µM] | Dox/P. a fold change (ratio between intrinsic MIC of the test compound and combination MIC) (P. aeruginosa ATCC 27853 [19]) [fold] | also measured |
| --- | --- | --- | --- | --- | --- | --- | --- | --- | --- | --- | --- | --- | --- | --- |
| COc1ccc2[nH]cc(CC(=O)NCCCNCCCCNCCCNC(=O)Cc3c[nH]c4ccc(OC)cc34)c2c1 [Compound 16a] | – | – | – | – | – | – | – | – | – | – | – | – | – | MIC A. b [1]: >55 µM; MIC MRSA (MRSA (ATCC 43300) [2]): >55 µM; MIC S. a [3]: 200 µM (≈ 115 µg/mL); MIC C. n [4]: >55 µM; IC50 [5]: > 40 µM; Dox/P. a fold change (ratio between intrinsic MIC of the test compound and combination MIC) (P. aeruginosa ATCC 27853 [6]): > 1 fold; Dox/P. a: concentration required to restore doxycycline activity (combination MIC) (P. aeruginosa ATCC 27853 [6]): 200 µM; MIC K. p [7]: >55 µM; MIC C. a [8]: >55 µM; Hemolysis: concentration of compound at 10% hemolytic activity (HC10) (human red blood cells [9]): >40 µM; MIC P. a [10]: >200 µM; MIC E. c [11]: >200 µM |
| O=C(Cc1c[nH]c2ccc(Br)cc12)NCCCNCCCCCCCNCCCNC(=O)Cc1c[nH]c2ccc(Br)cc12.O=C(O)C(F)(F)F.O=C(O)C(F)(F)F [Compound 15c, N^1,N^7-Bis(3-(2-(5-bromo-1H-indol-3-yl)acetamido)propyl)heptane-1,7-diaminium 2,2,2-trifluoroacetate] | ≤ 0.26 | 6.62 | 12.7 | > 34 | 13.2 | > 34 | > 34 | ≤ 0.26 | >34 | 6.62 | ≤ 0.26 | 106 | – | mode of antibacterial action (MBC versus MIC) (MRSA (CF-Marseille)): bactericidal; MIC (MRSA (CF-Marseille); Staphylococcus aureus, matches real time growth curve at 18 h, read-out: MIC (classical microdilution methodology)): 12.7 µM; MBC (MRSA (CF-Marseille); Staphylococcus aureus, read-out: minimum bactericidal concentration (MBC)): 12.7 µM; real time growth inhibition (MRSA (CF-Marseille); at 25.4 μM and 12.7 μM): completely inhibited; time after which bacterial growth was detected (MRSA (CF-Marseille); [22]): > 4 h; mode of antibacterial action (MBC versus MIC) (S. aureus ATCC 25923): bactericidal; MIC (S. aureus ATCC 25923; Staphylococcus aureus, ATCC25923, matches real time growth curve at 18 h, read-out: MIC (classical microdilution methodology)): 12.7 µM; MBC (S. aureus ATCC 25923; Staphylococcus aureus, ATCC25923, read-out: minimum bactericidal concentration (MBC)): 12.7 µM; real time growth inhibition (S. aureus ATCC 25923; at 25.4 μM and 12.7 μM): completely inhibited; time after which bacterial growth was detected (S. aureus ATCC 25923; [22]): > 4 h |
| COc1cccc2c(CC(=O)NCCCNCCCCCCCNCCCNC(=O)Cc3c[nH]c4c(OC)cccc34)c[nH]c12.O=C(O)C(F)(F)F.O=C(O)C(F)(F)F [Compound 19c, N^1,N^7-Bis(3-(2-(7-methoxy-1H-indol-3-yl)acetamido)propyl)heptane-1,7-diaminium 2,2,2-trifluoroacetate] | 37.8 | 236 | 29.5 | > 38 | 236 | > 38 | > 38 | ≤ 0.3 | >38 | 118 | > 38 | > 236 | > 2 | – |
| Cc1ccc2[nH]cc(CC(=O)NCCCNCCCCCCCCCCNCCCNC(=O)Cc3c[nH]c4ccc(C)cc34)c2c1.O=C(O)C(F)(F)F.O=C(O)C(F)(F)F [Compound 17e, N^1,N^10-Bis(3-(2-(5-methyl-1H-indol-3-yl)acetamido)propyl)decane-1,10-diaminium 2,2,2-trifluoroacetate] | ≤ 0.29 | 29.2 | 7.29 | > 37 | 58.3 | 37 | > 37 | ≤ 0.29 | 3.19 | 233 | ≤ 0.29 | 233 | 1 | – |
| O=C(Cc1c[nH]c2ccccc12)NCCCNCCCCCCCCCCCCNCCCNC(=O)Cc1c[nH]c2ccccc12.O=C(O)C(F)(F)F.O=C(O)C(F)(F)F [Compound 14f, N^1,N^12-Bis(3-(2-(1H-indol-3-yl)acetamido)propyl)dodecane-1,12-diaminium 2,2,2-trifluoroacetate] | ≤ 0.29 | 14.6 | 3.65 | > 37 | 29.2 | > 37 | > 37 | ≤ 0.29 | ≤0.29 | 14.6 | ≤ 0.29 | 58.3 | 4 | – |
| COc1ccc2[nH]cc(CC(=O)NCCCNCCCCCCNCCCNC(=O)Cc3c[nH]c4ccc(OC)cc34)c2c1.O=C(O)C(F)(F)F.O=C(O)C(F)(F)F [Compound 16b, N^1,N^6-Bis(3-(2-(5-methoxy-1H-indol-3-yl)acetamido)propyl)hexane-1,6-diaminium 2,2,2-trifluoroacetate] | 38 | 50 | 50 | > 38 | 100 | > 38 | > 38 | ≤ 0.3 | >38 | 25 | > 38 | > 200 | > 8 | – |
| O=C(Cc1c[nH]c2ccccc12)NCCCNCCCCNCCCNC(=O)Cc1c[nH]c2ccccc12 [Compound 14a] | – | – | – | – | – | – | – | – | – | – | – | – | – | MIC A. b [1]: >62 µM; MIC MRSA (MRSA (ATCC 43300) [2]): >62 µM; MIC S. a [3]: 200 µM (≈ 103 µg/mL); MIC C. n [4]: >62 µM; IC50 [5]: > 43 µM; Dox/P. a fold change (ratio between intrinsic MIC of the test compound and combination MIC) (P. aeruginosa ATCC 27853 [6]): > 4 fold; Dox/P. a: concentration required to restore doxycycline activity (combination MIC) (P. aeruginosa ATCC 27853 [6]): 50 µM; MIC K. p [7]: >62 µM; MIC C. a [8]: >62 µM; Hemolysis: concentration of compound at 10% hemolytic activity (HC10) (human red blood cells [9]): >43 µM; MIC P. a [10]: >200 µM; MIC E. c [11]: >200 ^j µM |
